Measurements published in patent publication US8933235B2, “Pyridinedione carboxamide inhibitors of endothelial lipase” (Bristol-Myers Squibb Company, priority 2011, dated 2015).

Target: T1, endothelial lipase (EL) (Homo sapiens, UniProt Q9Y5X9)
T1 construct: Conditioned media obtained from HT-1080 cells, which were transformed by RAGE technology (Athersys) to overexpress endogenous EL; endogenous in cells; conditioned medium used as the enzyme source
T1 sequence (Q9Y5X9 21-500): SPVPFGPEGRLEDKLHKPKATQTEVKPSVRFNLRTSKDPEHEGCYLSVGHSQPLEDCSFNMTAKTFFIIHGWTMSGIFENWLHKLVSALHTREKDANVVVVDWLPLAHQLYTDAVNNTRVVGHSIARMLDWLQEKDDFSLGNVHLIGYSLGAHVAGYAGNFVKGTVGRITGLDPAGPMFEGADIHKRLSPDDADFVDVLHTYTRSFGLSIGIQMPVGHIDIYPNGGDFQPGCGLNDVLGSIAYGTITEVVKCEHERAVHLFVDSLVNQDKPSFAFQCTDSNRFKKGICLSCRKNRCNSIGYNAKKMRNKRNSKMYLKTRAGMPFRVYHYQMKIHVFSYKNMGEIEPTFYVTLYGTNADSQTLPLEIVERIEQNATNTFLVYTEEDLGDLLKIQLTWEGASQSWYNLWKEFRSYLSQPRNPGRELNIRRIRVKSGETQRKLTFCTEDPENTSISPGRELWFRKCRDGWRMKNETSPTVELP
Test: Endothelial lipase (EL) enzymatic assay with fluorescent substrate A10070 in DMPG vesicles
Format: biochemical
Conditions: conditioned media from HT-1080 cells overexpressing endogenous EL; 20 min preincubation at 37° C.; read-out: HLE_EL_CRC IC50
Protocol: Endothelial lipase activity was measured using a fluorescent substrate, A10070, (Invitrogen, CA) doped into an artificial vesicle containing DMPG (Avanti Polar Lipids) as the excipient. Vesicles were prepared by combining 285 uL of 1 mM DMPG in a 1:1 mixture of MeOH and CHCl3 with 15 uL of 1 mM A10070 in a 1:1 mixture of MeOH and CHCl3. The mixture was dried under nitrogen and resuspended in 150 uL of 50 mM HEPES pH 8.0 buffer containing 100 mM NaCl and 0.2 mM EDTA. The sample was allowed to sit at rt for 15 min and then was sonicated 3×4 mins on ice with a Branson Sonicator using duty cycle 1. This preparation provides vesicles with a mole fraction of 0.05 for the FRET substrate.
The enzymatic assay was measured using white, opaque 96-well half area plates. Each well contained 60 uL of assay buffer (50 mM HEPES pH 8.0, 50 mM NaCl and 1 mM CaCl2) and 2 ul of a DMSO solution containing compound of interest. Conditioned media obtained from HT-1080 cells, which were transformed by RAGE technology (Athersys) to overexpress endogenous EL, was added and the reaction was allowed to incubate for 20 min at 37° C. with gentle agitation. The reaction was started by the addition of 20 uL of a 1:4 dilution of vesicles. The final total reaction volume was 100 uL. The reaction rates were measured on a Gemini plate reader with an excitation wavelength of 488 nm and a emission of 530 nm. Readings were taken every 20 seconds for 10 min with agitation between each reading. The slope of the linear portion of the readout was used to calculate the rate of the reaction.

SMILES: Cn1ccc(C(=O)NCc2ccc(C(F)(F)F)cc2)c(O)c1=O [Example 129, 3-hydroxy-1-methyl-2-oxo-N-(4-(trifluoromethyl)benzyl)-1,2-dihydropyridine-4-carboxamide]
- IC50: 3560 nM

SMILES: Cn1ccc(C(=O)NC(CCc2ccc(Cl)c(Cl)c2)C2CC2)c(O)c1=O (single isomer, unassigned) [Example 119, N-(1-cyclopropyl-3-(3,4-dichlorophenyl)propyl)-3-hydroxy-1-methyl-2-oxo-1,2-dihydropyridine-4-carboxamide]
- IC50: 1620 nM

SMILES: COC(=O)c1cccc(OCCCNC(=O)c2ccn(C)c(=O)c2O)c1 [Example 198, methyl 3-(3-(3-hydroxy-1-methyl-2-oxo-1,2-dihydropyridine-4-carboxamido)propoxy)benzoate]
- IC50: 182 nM

SMILES: CC(C)OCCNc1c(C(=O)NCCCc2ccc(Cl)c(Cl)c2)ccn(C)c1=O [Example 189, N-(3-(3,4-dichlorophenyl)propyl)-3-(2-isopropoxyethylamino)-1-methyl-2-oxo-1,2-dihydropyridine-4-carboxamide]
- IC50: 210 nM

SMILES: Cn1c(-c2cccc(C(=O)O)c2)cc(C(=O)NCCCc2ccc(Cl)c(Cl)c2)c(O)c1=O [Example 45, 3-(4-(3-(3,4-dichlorophenyl)propylcarbamoyl)-5-hydroxy-1-methyl-6-oxo-1,6-dihydropyridin-2-yl)benzoic acid]
- IC50: 199 nM

SMILES: Cn1c(-c2cc(F)cc(C(F)(F)F)c2)cc(C(=O)NCCc2cccc(C(F)(F)F)c2)c(O)c1=O [Example 56, 6-(3-fluoro-5-(trifluoromethyl)phenyl)-3-hydroxy-1-methyl-2-oxo-N-(3-(trifluoromethyl)phenethyl)-1,2-dihydropyridine-4-carboxamide]
- IC50: 216 nM

SMILES: Cn1c(-c2cc(F)cc(C(F)(F)F)c2)cc(C(=O)NCCCOc2ccccc2Cl)c(O)c1=O [Example 48, N-(3-(2-chlorophenoxy)propyl)-6-(3-fluoro-5-(trifluoromethyl)phenyl)-3-hydroxy-1-methyl-2-oxo-1,2-dihydropyridine-4-carboxamide]
- IC50: < 10 nM

SMILES: Cn1c(-c2cc(F)cc(C(F)(F)F)c2)cc(C(=O)NCCCc2ccc(Cl)c(Cl)c2)c(O)c1=O [Example 7, N-(3-(3,4-dichlorophenyl)propyl)-6-(3-fluoro-5-(trifluoromethyl)phenyl)-3-hydroxy-1-methyl-2-oxo-1,2-dihydropyridine-4-carboxamide]
- IC50: < 10 nM

SMILES: Cn1ccc(C(=O)NCCc2ccccc2Cl)c(O)c1=O [Example 127, N-(2-chlorophenethyl)-3-hydroxy-1-methyl-2-oxo-1,2-dihydropyridine-4-carboxamide]
- IC50: 8660 nM

SMILES: Cn1ccc(C(=O)NCCCOc2ccc(Cl)c(Cl)c2)c(O)c1=O [Example 194, N-(3-(3,4-dichlorophenoxy)propyl)-3-hydroxy-1-methyl-2-oxo-1,2-dihydropyridine-4-carboxamide]
- IC50: 210 nM

SMILES: Cn1c(-c2ccc(Cl)c(C(F)(F)F)c2)cc(C(=O)NCCCc2ccc(Cl)c(Cl)c2)c(O)c1=O [Example 8, 6-(4-chloro-3-(trifluoromethyl)phenyl)-N-(3-(3,4-dichlorophenyl)propyl)-3-hydroxy-1-methyl-2-oxo-1,2-dihydropyridine-4-carboxamide]
- IC50: < 10 nM

SMILES: Cn1ccc(C(=O)NC(CCc2ccc(Cl)c(Cl)c2)C2CC2)c(O)c1=O (single isomer, unassigned) [Example 118, N-(1-cyclopropyl-3-(3,4-dichlorophenyl)propyl)-3-hydroxy-1-methyl-2-oxo-1,2-dihydropyridine-4-carboxamide]
- IC50: 2700 nM

SMILES: CC(C)C(CCc1ccc(Cl)c(Cl)c1)NC(=O)c1ccn(C)c(=O)c1O (single isomer, unassigned) [Example 114, N-(1-(3,4-dichlorophenyl)-4-methylpentan-3-yl)-3-hydroxy-1-methyl-2-oxo-1,2-dihydropyridine-4-carboxamide]
- IC50: 6860 nM

SMILES: CC(CCc1ccccc1)NC(=O)c1ccn(C)c(=O)c1O (stereo not shown) [Example 126, 3-hydroxy-1-methyl-2-oxo-N-(4-phenylbutan-2-yl)-1,2-dihydropyridine-4-carboxamide]
- IC50: 2460 nM

SMILES: CC(C)C(CCc1ccc(Cl)c(Cl)c1)NC(=O)c1ccn(C)c(=O)c1O (single isomer, unassigned) [Example 115, N-(1-(3,4-dichlorophenyl)-4-methylpentan-3-yl)-3-hydroxy-1-methyl-2-oxo-1,2-dihydropyridine-4-carboxamide]
- IC50: 1790 nM

SMILES: COc1ccc(CCNC(=O)c2ccn(C)c(=O)c2O)cc1 [Example 128, 3-hydroxy-N-(4-methoxyphenethyl)-1-methyl-2-oxo-1,2-dihydropyridine-4-carboxamide]
- IC50: 6620 nM

SMILES: Cn1ccc(C(=O)NC(CCc2ccc(Cl)c(Cl)c2)c2ccccc2)c(O)c1=O (single isomer, unassigned) [Example 120, N-(3-(3,4-dichlorophenyl)-1-phenylpropyl)-3-hydroxy-1-methyl-2-oxo-1,2-dihydropyridine-4-carboxamide]
- IC50: 167 nM

SMILES: Cn1ccc(C(=O)NCCCOc2cccc(F)c2)c(O)c1=O [Example 142, N-(3-(3-fluorophenoxy)propyl)-3-hydroxy-1-methyl-2-oxo-1,2-dihydropyridine-4-carboxamide]
- IC50: 216 nM

SMILES: COc1c(C(=O)NCCCc2ccc(Cl)c(Cl)c2)ccn(C)c1=O [Example 113, N-(3-(3,4-dichlorophenyl)propyl)-3-methoxy-1-methyl-2-oxo-1,2-dihydropyridine-4-carboxamide]
- IC50: 5820 nM

SMILES: CC(CNC(=O)c1ccn(C)c(=O)c1O)Oc1ccc(F)cc1 (stereo not shown) [Example 137, N-(2-(4-fluorophenoxy)propyl)-3-hydroxy-1-methyl-2-oxo-1,2-dihydropyridine-4-carboxamide]
- IC50: 1660 nM

SMILES: CC(C)CNc1c(C(=O)NCCCc2ccc(Cl)c(Cl)c2)ccn(C)c1=O [Example 188, N-(3-(3,4-dichlorophenyl)propyl)-3-(isobutylamino)-1-methyl-2-oxo-1,2-dihydropyridine-4-carboxamide]
- IC50: 200 nM

SMILES: COC(=O)c1cccc(OCCCNC(=O)c2cc(-c3cc(F)cc(C(F)(F)F)c3)n(C)c(=O)c2O)c1 [Example 71, methyl 3-(3-(6-(3-fluoro-5-(trifluoromethyl)phenyl)-3-hydroxy-1-methyl-2-oxo-1,2-dihydropyridine-4-carboxamido)propoxy)benzoate]
- IC50: < 10 nM

SMILES: Cn1c(C(F)(F)F)cc(C(=O)NCCCOc2ccccc2C(F)(F)F)c(O)c1=O [Example 89, 3-hydroxy-1-methyl-2-oxo-6-(trifluoromethyl)-N-(3-(2-(trifluoromethyl)phenoxy)propyl)-1,2-dihydropyridine-4-carboxamide]
- IC50: < 10 nM

SMILES: Cn1c(-c2cc(F)cc(C(F)(F)F)c2)cc(C(=O)NCCCOc2ccc(Cl)c(Cl)c2)c(O)c1=O [Example 77, N-(3-(3,4-dichlorophenoxy)propyl)-6-(3-fluoro-5-(trifluoromethyl)phenyl)-3-hydroxy-1-methyl-2-oxo-1,2-dihydropyridine-4-carboxamide]
- IC50: < 10 nM

SMILES: Cn1ccc(C(=O)NCCc2ccc(C(F)(F)F)cc2)c(O)c1=O [Example 136, 3-hydroxy-1-methyl-2-oxo-N-(4-(trifluoromethyl)phenethyl)-1,2-dihydropyridine-4-carboxamide]
- IC50: 2200 nM

SMILES: Cn1c(-c2cc(F)cc(F)c2)cc(C(=O)NCCCc2ccc(Cl)c(Cl)c2)c(O)c1=O [Example 19, N-(3-(3,4-dichlorophenyl)propyl)-6-(3,5-difluorophenyl)-3-hydroxy-1-methyl-2-oxo-1,2-dihydropyridine-4-carboxamide]
- IC50: < 10 nM

SMILES: Cn1c(-c2cc(F)cc(C(F)(F)F)c2)cc(C(=O)NCCCOc2ccc(F)cc2)c(O)c1=O [Example 64, 6-(3-fluoro-5-(trifluoromethyl)phenyl)-N-(3-(4-fluorophenoxy)propyl)-3-hydroxy-1-methyl-2-oxo-1,2-dihydropyridine-4-carboxamide]
- IC50: < 10 nM

SMILES: Cn1c(-c2cc(F)cc(C(F)(F)F)c2)cc(C(=O)NCCCOc2ccccc2[N+](=O)[O-])c(O)c1=O [Example 81, 6-(3-fluoro-5-(trifluoromethyl)phenyl)-3-hydroxy-1-methyl-N-(3-(2-nitrophenoxy)propyl)-2-oxo-1,2-dihydropyridine-4-carboxamide]
- IC50: < 10 nM
